Source: patent US20040053826A1, “Uses of polypeptides” (priority 2000, published 2004)
Bridge positions count the residues as written; N and C are the ends. Ends that are not written are not given here.

What was measured:
Wistar male rats [1] = assay: Locomotion measurement: effects of diazepam on locomotion induced by intraventricular polypeptide (SEQ ID NO: 9) or PACAP38; type: in vivo, rat
Description: (§1) Each of Wistar male rats (8 weeks old) was anesthetized with pentobarbital and fixed on a stereotaxic apparatus. A guide cannula (AG-8, Eicom) was inserted into the lateral ventricle of each rat (AP: +8.1 mm, L: 1.8 mm, H: +7.1 mm). The rats were then allowed to recover for at least one week before the experiment. During the recovery period, handling was made every day to reduce stresses resulting from intraventricular administration.
The cannulated rats were transferred to a locomotion testing system (Supermex, Muromachi Kikai Co., Ltd.) and acclimatized overnight. The rats were transferred from the locomotion testing system and subcutaneously administered with diazepam (1 mg/kg). An hour later, the rats were intraventricularly administered with the polypeptide (SEQ ID NO: 9; 10 nmol) or PACAP38 (3 nmol) dissolved in phosphate buffered saline (PBS) at a flow rate of 2.5 μl/min for 4 minutes. Immediately after the administration, the rats were returned to the locomotion testing system and tested for their spontaneous locomotion (FIG. 4).

Wistar male rats [2] = assay: Locomotion measurement (spontaneous locomotion and number of rearings) after administration into the lateral ventricle; type: in vivo, rat
Description: Wistar male rats (9 weeks old) were anesthetized with pentobarbital and a guide cannula (AG-8, Eicom) was inserted into the lateral ventricle of each rat (AP: +8.1 mm, L: 1.8 mm, H: +7.1 mm). The rats were then allowed to recover for at least one week before the experiment. During the recovery period, handling was made every day to reduce stresses resulting from intraventricular administration.
On the day before the experiment, the rats were transferred to a locomotion testing system for acclimation purposes. Under unanesthetized and unrestrained conditions, a microinjection cannula was attached to the guide cannula through which each rat was administered with the polypeptide (SEQ ID NO: 9; 10 nmol) dissolved in phosphate buffered saline (PBS) or PBS alone at a rate of 5 μl/min for 2 minutes. Immediately after the administration, the rats were returned to the locomotion testing system (Supermex, Muromachi Kikai Co., Ltd.) and tested for their spontaneous locomotion and the number of rearings (FIG. 1).
Wistar male rats (9 weeks old) were anesthetized with pentobarbital and a guide cannula (AG-8, Eicom) was inserted into the lateral ventricle of each rat (AP: 8.1 mm, L: 1.8 mm, H: 7.1 mm). The rats were then allowed to recover for at least one week before the experiment. During the recovery period, handling was made every day to reduce stresses resulting from intraventricular administration.
On the day before the experiment, the rats were transferred to a locomotion testing system for acclimation purposes. Under unanesthetized and unrestrained conditions, a microinjection cannula was attached to the guide cannula through which each rat was administered with the polypeptide (SEQ ID NO: 9; 1 nmol) dissolved in PBS or PBS alone in a volume of 10 μl (5 μl/min for 2 minutes). Immediately after the administration, the rats were returned to the locomotion testing system (Supermex, Muromachi Kikai Co., Ltd.) and tested for their spontaneous locomotion and the number of rearings (FIG. 2).
as §1
The cannulated rats were transferred to a locomotion testing system (Supermex, Muromachi Kikai Co., Ltd.) and acclimatized overnight. The rats were transferred from the locomotion testing system and intraventricularly administered with the polypeptide (SEQ ID NO: 9; 1 nmol or 10 nmol) dissolved in phosphate buffered saline (PBS) or PBS alone at a flow rate of 5 μl/min for 4 minutes. Immediately after the administration, the rats were returned to the locomotion testing system and tested for their spontaneous locomotion and the number of rearings.

C57BL/6N mice [3] = assay: Elevated plus maze test; type: in vivo, mouse; conditions: for (Open arm entries)/(open arm entries + closed arm entries): 30 minutes after administration, tested over 5 minutes
Description: An acrylic maze having 4 arms (25 cm long, 8 cm wide) placed in the shape of a cross (elevated plus maze) was positioned in a sound-proof chamber under low illumination (0.5 lux). Two opposite arms of the elevated plus maze were enclosed by walls (closed arms) and the other two arms were wall-less (open arms). The maze was elevated 25 cm above the floor (FIG. 5).
After C57BL/6N mice were acclimatized in the laboratory, PBS containing the polypeptide (SEQ ID NO: 9; 1 nmol or 3 nmol) or PBS alone was administered in a volume of 5 μl into the lateral ventricle of each mouse using a double-needle (Matsumoto Seisakusho) under ether anesthesia. Thirty minutes after the administration, each mouse was placed on the elevated plus maze and tested over 5 minutes for the number of entries into each arm and the time spent on open arms.

C57BL/6N mice [4] = assay: Hole board test; type: in vivo, mouse; conditions: 0.1, 0.3 or 3 nmol into the lateral ventricle, 30 minutes after administration, over 5 minutes
Protocol: A polyvinyl chloride box having 4 holes (diameter: 3.8 cm) at its bottom was used as a hole board. Locomotion on the hole board was measured with a Supermex sensor (Muromachi Kikai Co., Ltd.). To measure the number of head dippings, MRS-110RX infrared-scanning sensors (Muromachi Kikai Co., Ltd.) were provided immediately below the respective holes.
After C57BL/6N mice were acclimatized in the laboratory, PBS containing the polypeptide (SEQ ID NO: 9; 0.1 nmol, 0.3 nmol or 3 nmol) or PBS alone was administered in a volume of 5 μl into the lateral ventricle of each mouse using a double-needle (Matsumoto Seisakusho) under ether anesthesia. Thirty minutes after the administration, each mouse was placed in the center of the hole board and tested over 5 minutes for locomotion and the number of head dippings.

[5] = Example 1, 10 nmol into the lateral ventricle
[6] = Example 2, 1 nmol into the lateral ventricle
[7] = Example 3, 10 nmol intraventricularly

PACAP38: PACAP38 known to have the ability to increase locomotion (HSDGIFTDSYSRYRKQMAVKKYLAAVLGKRYKQRVKNK; ends and bridges not checked; UniProt P18509 132-169, looked up)
spontaneous locomotion (Wistar male rats [1]; PACAP38 3 nmol intraventricularly): increase in locomotion

polypeptide (SEQ ID NO: 9): bovine SENR ligand peptide; the 6th and 11th cysteine residues form an intramolecular disulfide bond (GPSSECFWKYCV; disulfide 6-11)
locomotion after the initial decrease (Wistar male rats [2]; [5]): increase in their locomotion
number of rearings (Wistar male rats [2]; [5]): same effects as found in spontaneous locomotion
spontaneous locomotion immediately after the administration, as compared with the control rats (Wistar male rats [2]; [5]): tended to decrease
inhibition against a transient increase in locomotion as observed in 10 nmol administration (Wistar male rats [2]; [6]): did not show such an inhibition
locomotion from immediately after the administration (Wistar male rats [2]; [6]): increase in their locomotion
locomotion and the number of rearings from immediately after the administration (Wistar male rats [2]; Example 3, 1 nmol intraventricularly): increases
duration of the decreases in locomotion and number of rearings (Wistar male rats [2]; [7]): about 10 minutes
duration of the increase in locomotion (Wistar male rats [2]; [7]): about 1 hour
locomotion and the number of rearings immediately after the administration (Wistar male rats [2]; [7]): decreases
locomotion following the transient decrease (Wistar male rats [2]; [7]): increase in locomotion
number of rearings (Wistar male rats [2]; Example 3, 10 nmol intraventricularly, less significant tendency to increase): 51.0±13.4 times/90 min
(Open arm entries)/(open arm entries + closed arm entries) (C57BL/6N mice [3]; 1 nmol into the lateral ventricle, n=20): 0.131 ± 0.009
probability to select open arms (C57BL/6N mice [3]; 1 nmol or 3 nmol into the lateral ventricle): reduced
(Open arm entries)/(open arm entries + closed arm entries) (C57BL/6N mice [3]; 3 nmol into the lateral ventricle, n=20, *p < 0.05, Dunnett): 0.065 ± 0.018*
locomotion on the hole board (C57BL/6N mice [4]): no change
number of head dippings (C57BL/6N mice [4]): significant decrease

CN1C(=O)CN=C(c2ccccc2)c2cc(Cl)ccc21 [Diazepam, diazepam]
effect on the increase in locomotion induced by PACAP38 (Wistar male rats [1]; diazepam 1 mg/kg subcutaneously 1 hour before PACAP38 3 nmol intraventricularly): dose not affect
effect on the increase in locomotion induced by the polypeptide (SEQ ID NO: 9) (Wistar male rats [1]; diazepam 1 mg/kg subcutaneously 1 hour before polypeptide (SEQ ID NO: 9) 10 nmol intraventricularly): significantly inhibits
